Results reported in patent US4450269A, “Mono-5-substituted-3-chloro-4H-1,2,6-thiadiazin-4-one antifungal agents” (FMC Corporation, priority 1980, dated 1984).
Read-outs that look alike come from different tables or passages of the source.

What was measured:
Assay type in all cases: cell-based
Phytophthora infestans = conditions: PI, 48 hours
Erysiphe polygoni = assay: Spore germination test; conditions: EP, 48 hours
Outline: (§1)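 Compound was delivered in acetone into water agar at final 40, 10, 2.5 and 1 ppm. Alternaria solani and Botrytis cinerea spores were applied as sterile-water suspensions, while Erysiphe polygoni and Uromyces phaseoli spores were brushed on from infected leaves. After 48 h at 24° C., percentage germination was converted to a rating.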

Uromyces phaseoli = assay: Spore germination test; conditions: UP, 48 hours
Outline: as §1

Row | SMILES | Spore Germination Rating (Phytophthora infestans; 1.0 ppm) | Spore Germination Rating (Phytophthora infestans; 2.5 ppm) | Spore Germination Rating (Phytophthora infestans; 10 ppm) | Spore Germination Rating (Phytophthora infestans; 40 ppm) | Spore Germination Rating (Erysiphe polygoni; 1.0 ppm) | Spore Germination Rating (Erysiphe polygoni; 2.5 ppm) | Spore Germination Rating (Erysiphe polygoni; 10 ppm) | Spore Germination Rating (Erysiphe polygoni; 40 ppm) | Spore Germination Rating (Uromyces phaseoli; 1.0 ppm) | Spore Germination Rating (Uromyces phaseoli; 2.5 ppm) | Spore Germination Rating (Uromyces phaseoli; 10 ppm) | Spore Germination Rating (Uromyces phaseoli; 40 ppm)
1 | O=C(Nc1ccccc1)Nc1ccc(Oc2nsnc(Cl)c2=O)cc1 [Compound 29, 3-chloro-5-[4-(3-phenylureido)-phenoxy]-4H--1,2,6-thiadiazin-4-one] | 4 (80-100) | 4 (80-100) | 4 (80-100) | 3 (60-80) | 4 (80-100) | 4 (80-100) | 4 (80-100) | 1 (10-40) | 4 (80-100) | 2 (40-60) | 2 (40-60) | 0 (0-10)
2 | O=c1c(Cl)nsnc1Oc1c(Cl)cc(Cl)cc1Cl [Compound 30, 3-chloro-5-(2,4,6-trichlorophenoxy)-4H--1,2,6-thiadiazin-4-one] | 4 (80-100) | 1 (10-40) | 0 (0-10) | 0 (0-10) | 1 (10-40) | 0 (0-10) | 0 (0-10) | 0 (0-10) | 0 (0-10) | 0 (0-10) | 0 (0-10) | 0 (0-10)
3 | O=c1c(Cl)nsnc1Oc1c(Cl)c(Cl)c(Cl)c(Cl)c1Cl [Compound 31, 3-chloro-5-(pentachlorophenoxy)-4H--1,2,6-thiadiazine-4-one] | 4 (80-100) | 3 (60-80) | 2 (40-60) | 2 (40-60) | 0 (0-10) | 0 (0-10) | 1 (10-40) | 0 (0-10) | 0 (0-10) | 0 (0-10) | 0 (0-10) | 0 (0-10)
4 | O=c1c(Cl)nsnc1Oc1cccc2ccccc12 [Compound 32, 3-chloro-5(1-naphthoxy)-4H-1,2,6-thiadiazin-4-one] | 3 (60-80) | 1 (10-40) | 0 (0-10) | 0 (0-10) | 2 (40-60) | 2 (40-60) | 0 (0-10) | 0 (0-10) | 3 (60-80) | 0 (0-10) | 0 (0-10) | 0 (0-10)
5 | O=c1c(Cl)nsnc1Oc1ccccc1Br [Compound 34, 3-chloro-5-(2-bromophenoxy)-4H-1,2,6,-thiadiazin-4-one] | 4 (80-100) | 1 (10-40) | 0 (0-10) | 0 (0-10) | 0 (0-10) | 2 (40-60) | 0 (0-10) | 0 (0-10) | 0 (0-10) | 0 (0-10) | 0 (0-10) | 0 (0-10)
6 | O=c1c(Cl)nsnc1Oc1ccc(O)cc1 [Compound 35, 3-chloro-5-(4-hydroxyphenoxy)-4H-1,2,6-thiadiazin-4-one] | 4 (80-100) | 0 (0-10) | 0 (0-10) | 0 (0-10) | 4 (80-100) | 4 (80-100) | 2 (40-60) | 1 (10-40) | 0 (0-10) | 0 (0-10) | 0 (0-10) | 0 (0-10)
7 | O=C(Nc1ccccc1)Oc1ccc(Oc2nsnc(Cl)c2=O)cc1 [Compound 37, 3-chloro-5-[4-(phenylaminocarbonyloxy)phenoxy]-4H-1,2,6,-thiadiazin-4-one] | 4 (80-100) | 4 (80-100) | 4 (80-100) | 4 (80-100) | 4 (80-100) | 4 (80-100) | 4 (80-100) | 3 (60-80) | 4 (80-100) | 2 (40-60) | 1 (10-40) | 1 (10-40)
8 | O=C(OCc1ccccc1)Oc1ccc(Oc2nsnc(Cl)c2=O)cc1 [Compound 38, 3-chloro-5-[4-(phenylmethoxycarbonyloxy)phenoxyl]-4H-1,2,6-thiadiazin-4-one] | 4 (80-100) | 4 (80-100) | 4 (80-100) | 3 (60-80) | 4 (80-100) | 4 (80-100) | 4 (80-100) | 4 (80-100) | 4 (80-100) | 4 (80-100) | 3 (60-80) | 2 (40-60)
9 | CSc1ccc(Oc2nsnc(Cl)c2=O)cc1 [Compound 39, 3-chloro-5-[(4-methylthio)phenoxy]-4H-1,2,6,-thiadiazin-4-one] | 4 (80-100) | 4 (80-100) | 3 (60-80) | 3 (60-80) | 2 (40-60) | 1 (10-40) | 2 (40-60) | 0 (0-10) | 2 (40-60) | 2 (40-60) | 2 (40-60) | 0 (0-10)
10 | C[S+]([O-])c1ccc(Oc2nsnc(Cl)c2=O)cc1 (stereo not drawn) [Compound 40, 3-chloro-5-[(4-methylsulfinyl)phenoxy]-4H-1,2,6,-thiadiazin-4-one] | 4 (80-100) | 3 (60-80) | 2 (40-60) | 0 (0-10) | 4 (80-100) | 4 (80-100) | 4 (80-100) | 1 (10-40) | 3 (60-80) | 2 (40-60) | 1 (10-40) | 1 (10-40)
11 | CC(=O)Nc1cccc(Oc2nsnc(Cl)c2=O)c1 [Compound 42, 3-[(3-N--acetylamino)-phenoxy]-5-chloro-4H--1,2,6-thiadiazin-4-one] | 4 (80-100) | 4 (80-100) | 3 (60-80) | 0 (0-10) | 4 (80-100) | 4 (80-100) | 4 (80-100) | 4 (80-100) | 4 (80-100) | 3 (60-80) | 1 (10-40) | 0 (0-10)
12 | CC(=O)Nc1ccccc1Oc1nsnc(Cl)c1=O [Compound 43, 3-[(2-acetylamino)-phenoxy]-5-chloro-4H--1,2,6-thiadiazin-4-one] | 4 (80-100) | 4 (80-100) | 4 (80-100) | 2 (40-60) | 4 (80-100) | 4 (80-100) | 4 (80-100) | 1 (10-40) | 4 (80-100) | 4 (80-100) | 4 (80-100) | 4 (80-100)
13 | O=c1c(Cl)nsnc1Oc1cccc(C(F)(F)F)c1 [Compound 44, 3-chloro-5-[(3-trifluoromethyl)phenoxy]-4H--1,2,6-thiadiazin-4-one] | 2 (40-60) | 0 (0-10) | 0 (0-10) | 0 (0-10) | 3 (60-80) | 1 (10-40) | 0 (0-10) | 0 (0-10) | 1 (10-40) | 0 (0-10) | 0 (0-10) | 0 (0-10)
